Measurements: patent US9315545B2, “Hepcidin mimetic peptides and uses thereof” (MERGANSER BIOTECH, INC., priority 2014, dated 2016)
≈ marks a conversion by molar mass, not a printed value. Entries after “also recorded” stand apart in the source; their conditions may differ.

Tests used:
[1] = Stability in sodium acetate buffer pH 6 at two temperatures, reversed-phase HPLC; type: physicochemical; conditions: for % Purity of the Compound, 6 Hours 25° C. / % Purity of the Compound, 6 Hours 40° C.: sodium acetate buffer pH 6, 6 hours; for Change in Main Peak % Area After 18 H Incubation, 25° C. / Change in Main Peak % Area After 18 H Incubation, 40° C.: sodium acetate buffer pH 6, 18 h; for % Purity of the Compound, 18 Hours 25° C. / % Purity of the Compound, 18 Hours 40° C.: sodium acetate buffer pH 6, 18 hours; for % Purity of the Compound, Initial: sodium acetate buffer pH 6, initial
Protocol: Three other compounds were also tested, Compound 2, Compound 3, and Compound 4. Compounds 2, 3, and 4 are modifications of Compound 1 at the sidechain of Cysteine 7. Compound 2 has a disulfide bond attached to Cysteine 7, Compound 3 has thioester bond attached to Cysteine 7, and Compound 4 has an ethyl group attached to the sidechain sulfur of Cysteine 7. The peptides were incubated in sodium acetate buffer pH 6 at two temperature conditions and then analyzed via reversed-phase HPLC. The chromatography performed was with an Ascentis Phenyl 2.7 micron column (4.6×150 mm). The binary gradient (1 ml/min) was 36% to 56% B in 40 minutes followed by an increase to 65% B in 5 minutes where A=0.1% trifluoroacetic acid in water and B=0.1% trifluoroacetic acid in acetonitrile.

[2] = In vitro stability of compounds in rat plasma (37° C.); type: in vitro ADME; conditions: for half-life: rat, plasma
Protocol: The in vitro stability of Compounds 1-4 in rat plasma at 37° C. was examined to give an indication of stability in a whole animal model (Table 6).

[3] = Compound blood levels after subcutaneous administration in the rat (LC/MS); type: in vivo; conditions: in vivo, sc, 7.5 mg/kg
Protocol: (§1) Compounds 1-4 were tested in rats to determine compound pharmacokinetics and hepcidin mimetic activity in vivo as measured by serum iron reduction. The effectiveness of the compounds for serum iron reduction should correlate with the treatment of iron metabolism disorders. Individual compounds, in this example and the following examples were generally formulated in DSPE-PEG(2000) (SUNBRIGHT® DSPE-020CN, NOF America Corporation) (30 mg/mL) and dosed subcutaneously at a compound dose of 7.5 mg/kg.
(§2) The compound was prepared according to the following typical preparation. The dosing solution was prepared (7.5 mg compound/mL in clear solution) by weighing the compound into vial and an aliquot of ethanol is added into the vial and mixture vortexed. DSPE-020CN was added and the solution was vortexed, and, if necessary, the mixture was heated at 37° C. for 10-15 minutes to fully dissolve the DSPE-020CN. The ethanol was evaporated with nitrogen gas stream for 1-3 hours. Sterile water was then added and the mixture was vortexed or, if necessary, sonicated to give a clear solution.
After subcutaneous injection compound quantities in blood were measured over the subsequent 24 hours via LC/MS.

[4] = test system: serum iron; assay: Serum iron reduction after subcutaneous administration in the rat (hepcidin mimetic activity); type: in vivo; conditions: 7.5 mg/kg
Protocol: as §1, §2
Serum iron was measured during the 24 h following subcutaneous administration in a rat of Compounds 1-4 and is summarized in FIG. 1. […] The observed effects on serum iron were unexpectedly similar in Compounds 1-3 despite the differences at Cysteine 7 and the differences in blood levels of the compounds (Table 7).

[5] = physchem; type: physicochemical
Protocol: Different solvent compositions with different properties that are commonly used as a basis for pharmaceutical compositions were added to known quantities of the indicated compound and mixed. If a clear solution was not obtained, additional solvent was added and the solution mixed. […] For example “50-100” would indicate that the compound was not soluble at 100 mg/mL but upon additional solvent to have a final concentration of 50 mg/mL, the compound was soluble.

[6] = type: physicochemical
Protocol: An additional critical aspect in drug delivery is retention of solubility with time (physical stability), especially under refrigerated conditions. […] Unexpectedly, clear differences in physical stability were observed between Compound 5 and other compounds with only minor changes in sequence (e.g. Compounds 7 and 8). The combination of unexpected solubility of greater than 100 mg/mL in mildly acidic conditions and lack of significant changes in solution character after refrigeration, are unexpected and advantageous for a pharmaceutical product.

[7] = Solubility (mg/mL) at Ambient Temperature, 30% PEG 400
[8] = Solubility (mg/mL) at Ambient Temperature, 50% EtOH/water
[9] = Solubility (mg/mL) at Ambient Temperature, Water
[10] = pH 2.3, Solubility (mg/mL) at Ambient Temperature, 10% Tween 80 pH 2.3-2.8
[11] = pH 2.7, Solubility (mg/mL) at Ambient Temperature, 50% propylene glycol, pH 2.7
[12] = pH 4.5, Solubility (mg/mL) at Ambient Temperature, 10% Tween 80 pH 4.5-5.0
[13] = pH 5.5, Solubility (mg/mL) at Ambient Temperature, 10% Tween 80 pH 5.5-6.0

Row | Compound | % Purity of the Compound, 6 Hours 25° C. [1] [%] | % Purity of the Compound, 6 Hours 40° C. [1] [%] | Change in Main Peak % Area After 18 H Incubation, 25° C. [1] [%] | Change in Main Peak % Area After 18 H Incubation, 40° C. [1] [%] | % Purity of the Compound, 18 Hours 25° C. [1] [%] | % Purity of the Compound, 18 Hours 40° C. [1] [%] | % Purity of the Compound, Initial [1] [%] | In vitro plasma stability (Ratio of compound/benfluorex (std) degradation) [2] | half-life [2] [h] | AUC(0-t) [3] [ng·h/mL] | blood levels of Compound 1 (metabolite) after dosing the labelled compound [3] | solubility [5, 7] [mg/mL] | solubility [5, 8] [mg/mL] | solubility [5, 9] [mg/mL] | solubility [5, 10] [mg/mL] | solubility [5, 11] [mg/mL] | solubility [5, 12] [mg/mL] | solubility [5, 13] [mg/mL] | further results
1 | CCCCCCCCCCCCCCCCNC(=O)CN(CC(N)=O)C(=O)CCCCCNC(=O)C(Cc1c[nH]c2ccccc12)NC(=O)C(CCCNC(=N)N)NC(=O)C(CSC(C)=O)NC(=O)C(CCCNC(=N)N)NC(=O)CC1CCCN1C(=O)C(NC(=O)C(Cc1c[nH]cn1)NC(=O)C(NC(=O)CNCC(=O)O)C(C)O)C(c1ccccc1)c1ccccc1 (stereo not shown) [Compound 3] | 96.9 | 84.9 | −2.3 | −30 | 95.1 | 67.2 | 97.3 | 1.78 | 1.22 | 12200 | comparable to the levels observed when just Compound 1 was dosed |  |  |  |  |  |  |  | degradation after 18 hours at 40° C. [1]: 30%; significant degradation peaks observed by HPLC [1]: multiple major peaks; blood levels relative to those observed in Compound 1 [3]: 5-9 times
2 | CCCCCCCCCCCCCCCCNC(=O)CN(CC(N)=O)C(=O)CCCCCNC(=O)C(Cc1c[nH]c2ccccc12)NC(=O)C(CCCNC(=N)N)NC(=O)C(CSCC)NC(=O)C(CCCNC(=N)N)NC(=O)CC1CCCN1C(=O)C(NC(=O)C(Cc1c[nH]cn1)NC(=O)C(NC(=O)CNCC(=O)O)C(C)O)C(c1ccccc1)c1ccccc1 (stereo not shown) [Compound 4] | 96.8 | 96.6 | −0.5 | 0.3 | 96.2 | 97.0 | 96.7 | 2.74 | 1.87 | 25600 | No levels of Compound 1 were detected |  |  |  |  |  |  |  | degradation after 18 hours at 40° C. (in words) [1]: no evidence of degradation involving the cysteine; reduction in serum iron (in words) [4]: minimal reduction in serum iron after 24 h; also recorded: little activity in vivo; blood levels of the dosed compound (in words) [3]: very high blood levels
3 | CCCCCCCCCCCCCCCCNC(=O)CN(CC(N)=O)C(=O)CCCCCNC(=O)[C@H](Cc1c[nH]c2ccccc12)NC(=O)[C@H](CCCNC(=N)N)NC(=O)[C@H](CSSC)NC(=O)[C@H](CCCNC(=N)N)NC(=O)[C@@H]1CCCN(C(=O)[C@@H](NC(=O)[C@H](Cc2c[nH]cn2)NC(=O)[C@@H](NC(=O)CNCC(=O)O)[C@@H](C)O)C(c2ccccc2)c2ccccc2)C1 [Compound 7] |  |  |  |  |  |  |  |  |  |  |  | > 35 | > 100 | 50 to 100 (≈ 27.7 to 55.4 mM) | > 100 | > 100 | > 50 | 50 to 100 (≈ 27.7 to 55.4 mM) | 
4 | CCCCCCCCCCCCCCCCNC(=O)CN(CC(N)=O)C(=O)CCCCCNC(=O)C(Cc1c[nH]c2ccccc12)NC(=O)C(CCCNC(=N)N)NC(=O)C(CSSC)NC(=O)C(CCCNC(=N)N)NC(=O)CC1CCCN1C(=O)C(NC(=O)C(Cc1c[nH]cn1)NC(=O)C(NC(=O)CNCC(=O)O)C(C)O)C(c1ccccc1)c1ccccc1 (stereo not shown) [Compound 2] | 99.6 | 99.4 | −0.2 | −0.1 | 99.3 | 99.4 | 99.5 | 0.98 | 0.667 | 1010 | unexpectedly higher than expected | 25 to 35 (≈ 13.9 to 19.4 mM) | > 100 | 50 to 100 (≈ 27.7 to 55.4 mM) | 60 to 100 (≈ 33.3 to 55.4 mM) | 50 to 100 (≈ 27.7 to 55.4 mM) | 50 to 100 (≈ 27.7 to 55.4 mM) | 25 to 30 (≈ 13.9 to 16.6 mM) | degradation after 18 hours at 40° C. (in words) [1]: little degradation observed; significant degradation peaks observed by HPLC [1]: no significant degradation peak; Solution Appearance after 7 days Storage at 2-8° C., 2% Tween 80 pH 5 ([6]; 2% Tween 80 pH 5): Gel; Solution Appearance after 7 days Storage at 2-8° C., 2% Tween pH 6.4 ([6]; 2% Tween pH 6.4): Gel; Solution Appearance after 7 days Storage at 2-8° C., 10% Tween 80 pH 2.3-2.8 ([6]; 10% Tween 80 pH 2.3-2.8): Gel; Solution Appearance after 7 days Storage at 2-8° C., 10% Tween 80 pH 4.5-5.0 ([6]; 10% Tween 80 pH 4.5-5.0): Gel; Solution Appearance after 7 days Storage at 2-8° C., 30% PEG 400 ([6]; 30% PEG 400): Gel; Solution Appearance after 7 days Storage at 2-8° C., 50% EtOH/water ([6]; 50% EtOH/water): Gel; Solution Appearance after 7 days Storage at 2-8° C., 50% propylene glycol, pH 2.7 ([6]; 50% propylene glycol, pH 2.7): Gel; Solution Appearance after 7 days Storage at 2-8° C., Water ([6]; Water): Gel; change of solubility with pH (in words) ([5]; pH 4): marked decrease in solubility above pH 4; solubility ([5]; pH 5, Solubility (mg/mL) at Ambient Temperature, 2% Tween 80 pH 5): < 50 mg/mL; solubility ([5]; pH 6.4, Solubility (mg/mL) at Ambient Temperature, 2% Tween pH 6.4): < 10 mg/mL

Further lines, with some results ahead:

Row | % Purity of the Compound, 6 Hours 25° C. [1] [%] | % Purity of the Compound, 6 Hours 40° C. [1] [%] | Change in Main Peak % Area After 18 H Incubation, 25° C. [1] [%] | Change in Main Peak % Area After 18 H Incubation, 40° C. [1] [%] | % Purity of the Compound, 18 Hours 25° C. [1] [%] | % Purity of the Compound, 18 Hours 40° C. [1] [%] | % Purity of the Compound, Initial [1] [%] | In vitro plasma stability (Ratio of compound/benfluorex (std) degradation) [2] | half-life [2] [h] | AUC(0-t) [3] [ng·h/mL] | blood levels of Compound 1 (metabolite) after dosing the labelled compound [3] | solubility [5, 7] [mg/mL] | solubility [5, 8] [mg/mL] | solubility [5, 9] [mg/mL] | solubility [5, 10] [mg/mL] | solubility [5, 11] [mg/mL] | solubility [5, 12] [mg/mL] | solubility [5, 13] [mg/mL] | Compound | further results
5 |  |  |  |  |  |  |  |  |  |  |  | < 10 | < 10 | < 25 | 15 to 20 (≈ 8.5 to 11.3 mM) | < 20 | < 10 | < 10 | CCCCCCCCCCCCCCCCNC(=O)CN(CC(N)=O)C(=O)CCCCCNC(=O)[C@H](Cc1c[nH]c2ccccc12)NC(=O)[C@H](CCCNC(=N)N)NC(=O)[C@H](CSSC)NC(=O)[C@H](CCCNC(=N)N)NC(=O)CCNC(=O)[C@@H](NC(=O)[C@H](Cc1c[nH]cn1)NC(=O)[C@@H](NC(=O)CNCC(=O)O)[C@@H](C)O)C(c1ccccc1)c1ccccc1 [Compound 10] | solubility characteristics compared to the other compounds (in words) [5]: does not improve solubility characteristics
6 |  |  |  |  |  |  |  |  |  |  |  | 25 to 35 (≈ 13.9 to 19.4 mM) | > 100 | 50 to 100 (≈ 27.7 to 55.4 mM) | 40 to 70 (≈ 22.2 to 38.8 mM) | 30 to 50 (≈ 16.6 to 27.7 mM) | > 50 | 50 to 100 (≈ 27.7 to 55.4 mM) | CCCCCCCCCCCCCCCCNC(=O)CN(CC(N)=O)C(=O)CCCCCNC(=O)[C@H](Cc1c[nH]c2ccccc12)NC(=O)[C@H](CCCNC(=N)N)NC(=O)[C@H](CSSC)NC(=O)[C@H](CCCNC(=N)N)NC(=O)C1CCN(C(=O)[C@@H](NC(=O)[C@H](Cc2c[nH]cn2)NC(=O)[C@@H](NC(=O)CNCC(=O)O)[C@@H](C)O)C(c2ccccc2)c2ccccc2)CC1 [Compound 8] | 
7 |  |  |  |  |  |  |  |  |  |  |  | 20 to 35 (≈ 10.5 to 18.4 mM) | > 100 | 50 to 100 (≈ 26.3 to 52.5 mM) | 30 to 50 (≈ 15.8 to 26.3 mM) | 30 to 50 (≈ 15.8 to 26.3 mM) | 25 to 50 (≈ 13.1 to 26.3 mM) | 25 to 35 (≈ 13.1 to 18.4 mM) | CCCCCCCCCCCCCCCCNC(=O)CN(CC(N)=O)C(=O)CCCCCNC(=O)[C@H](Cc1c[nH]c2ccccc12)NC(=O)[C@H](CCCNC(=N)N)NC(=O)[C@H](CSSC)NC(=O)[C@H](CCCNC(=N)N)NC(=O)C[C@@H]1CCCN1C(=O)[C@@H](NC(=O)[C@H](Cc1c[nH]cn1)NC(=O)[C@@H](NC(=O)CN(CC(=O)O)C(=O)CNC(C)=O)[C@@H](C)O)C(c1ccccc1)c1ccccc1 [Compound 9] | 
